From ChEMBL document CHEMBL3817727, “Fluorinated thiazolidinols cause cell death in A549 lung cancer cells via PI3K/AKT/mTOR and MAPK/ERK signalling pathways” (Medchemcomm, 2016)
Calls of active or inactive are those of the source. The rule behind the calls is not given here.

Experiments:
MDA-MB-231 = test: Cytotoxicity against human MDA-MB-231 cells assessed as reduction in cell viability after 24 hrs by MTT assay; type: functional, cell-based; details: MDA-MB-231, 24 h
MCF7 = test: Cytotoxicity against human MCF7 cells assessed as reduction in cell viability after 24 hrs by MTT assay; type: functional, cell-based; details: MCF7, 24 h
HeLa = test: Cytotoxicity against human HeLa cells assessed as reduction in cell viability after 24 hrs by MTT assay; type: functional, cell-based
A549 [1] = test: Cytotoxicity against human A549 cells assessed as reduction in cell viability after 24 hrs by MTT assay; type: functional, cell-based; details: A549, 24 h
A549 [2] = test: Cell cycle arrest in human A549 cells assessed as accumulation at G2/M phase at 4 uM after 24 hrs by propidium iodide staining based flow cytometry (reference value: 21.58%); type: functional
A549 [3] = test: Inhibition of PI3K/Akt/mTOR signalling in human A549 cells assessed as reduction in Akt phosphorylation at Ser-473 residue at 4 uM after 24 hrs by Western blot analysis; type: cell-based
A549 [4] = test: Cell cycle arrest in human A549 cells assessed as accumulation at S phase at 4 uM after 24 hrs by propidium iodide staining based flow cytometry (reference value: 8.85%); type: functional
A549 [5] = test: Induction of cell death in human A549 cells assessed as LC3-mediated cytoplasmic vacuolation by Hoechst staining based assay; type: functional
A549 [6] = test: Induction of autophagy in human A549 cells assessed as increase in Atg7 expression after 24 hrs by Western blot analysis; type: functional, cell-based
A549 [7] = test: Cell cycle arrest in human A549 cells assessed as accumulation at subG1 phase at 4 uM after 24 hrs by propidium iodide staining based flow cytometry (reference value: 1.11%); type: functional
A549 [8] = test: Inhibition of PI3K/Akt/mTOR signalling in human A549 cells assessed as downregulation of PI3K expression at 4 uM after 24 hrs by Western blot analysis; type: cell-based
A549 [9] = test: Inhibition of PI3K/Akt/mTOR signalling in human A549 cells assessed as downregulation of Akt expression at 4 uM after 24 hrs by Western blot analysis; type: cell-based
A549 [10] = test: Induction of cell death in human A549 cells assessed as increase in LC3-2 expression after 24 hrs by Western blot analysis; type: functional, cell-based
A549 [11] = test: Inhibition of RAS/MEK/ERK signalling in human A549 cells assessed as decrease in phosphorylated MEK1/2 level at 4 uM after 24 hrs by Western blot analysis; type: cell-based
A549 [12] = test: Upregulation of PTEN expression in human A549 cells at 4 uM after 24 hrs by Cy-3 staining based immunoblot analysis; type: functional, cell-based
A549 [13] = test: Inhibition of RAS/MEK/ERK signalling in human A549 cells assessed as decrease in phosphorylated ERK1/2 level at 4 uM after 24 hrs by Western blot analysis; type: cell-based
A549 [14] = test: Cell cycle arrest in human A549 cells assessed as accumulation at G0/G1 phase at 4 uM after 24 hrs by propidium iodide staining based flow cytometry (reference value: 69.5%); type: functional
A549 [15] = test: Inhibition of PI3K/Akt/mTOR signalling in human A549 cells assessed as downregulation of mTOR expression at 4 uM after 24 hrs by Western blot analysis; type: cell-based
A549 [16] = test: Cell cycle arrest in human A549 cells assessed as accumulation at G0/G1 phase at 10 uM after 24 hrs by propidium iodide staining based flow cytometry (reference value: 69.5%); type: functional
A549 [17] = test: Cell cycle arrest in human A549 cells assessed as accumulation at G2/M phase at 10 uM after 24 hrs by propidium iodide staining based flow cytometry (reference value: 21.58%); type: functional
A549 [18] = test: Cell cycle arrest in human A549 cells assessed as accumulation at S phase at 10 uM after 24 hrs by propidium iodide staining based flow cytometry (reference value: 8.85%); type: functional
A549 [19] = test: Cell cycle arrest in human A549 cells assessed as accumulation at subG1 phase at 10 uM after 24 hrs by propidium iodide staining based flow cytometry (reference value: 1.11%); type: functional

SMILES | IC50 (MDA-MB-231) [µM] | IC50 (MCF7) [µM] | IC50 (HeLa) [µM] | IC50 (A549 [1]) [µM] | also measured
OC1(C(F)(F)F)CS/C(=N\c2ccccc2)N1CCc1ccccn1 (stereo unspecified) | 21.5 | 25.9 | 28.5 | 20.1 | 
OC1(C(F)(F)F)CS/C(=N\c2ccc(Cl)c(C(F)(F)F)c2)N1Cc1ccco1 (stereo unspecified) | 5.12 | 15.1 | 5.84 | 3.82 | Activity (A549 [2]): 11.8%; inhibition (A549 [3]): Active; Activity (A549 [4]): 4.11%; Activity (A549 [5]): Active; Activity (A549 [6]): Active; Activity (A549 [7]): 4.99%; inhibition (A549 [8]): Active; inhibition (A549 [9]): Active; Activity (A549 [10]): Active; inhibition (A549 [11]): Active; Activity (A549 [12]): Active; inhibition (A549 [13]): Active; Activity (A549 [14]): 79.77%; inhibition (A549 [15]): Active
CCCN1/C(=N/c2ccccc2)SCC1(O)C(F)(F)F (stereo unspecified) | 18.7 | 22.5 | 24.4 | 14.3 | 
O=c1cc(N2CCOCC2)oc2c(-c3ccccc3)cccc12 [LY-294002] | 9.7 | 29.1 | 20.5 | 17.7 | Activity (A549 [16]): 82.95%; Activity (A549 [17]): 9.24%; Activity (A549 [18]): 3.24%; Activity (A549 [19]): 5.15%
OC1(C(F)(F)F)CS/C(=N\c2ccc(C(F)(F)F)cc2)N1Cc1ccco1 (stereo unspecified) | 21.7 | 25.1 | 19.7 | 13.1 | 
OC1(C(F)(F)F)CS/C(=N\c2ccc(F)cc2)N1c1ccccc1 (stereo unspecified) | 19.6 | 25.8 | 32.4 | 17.1 | 
OC1(C(F)(F)F)CS/C(=N\c2ccccc2)N1C1CC1 (stereo unspecified) | 22.7 | 29.2 | 24.6 | 15.1 | 
OC1(C(F)(F)F)CS/C(=N\c2ccccc2)N1c1ccccc1 (stereo unspecified) | 20.9 | 25 | 29.4 | 18.6 | 
OC1(C(F)(F)F)CS/C(=N\c2ccccc2)N1Cc1ccco1 (stereo unspecified) | 21.6 | 29.4 | 24.8 | 8.26 | 
COc1ccc(N2/C(=N/c3ccc(C(F)(F)F)cc3)SCC2(O)C(F)(F)F)cc1 (stereo unspecified) | 20.6 | 29.2 | 16.8 | 15.2 | 
OC1(C(F)(F)F)CS/C(=N\c2ccccc2)N1CCN1CCOCC1 (stereo unspecified) | 23.8 | 37.4 | 26.1 | 21.2 | 
OC1(C(F)(F)F)CS/C(=N\c2ccccc2)N1CCc1c[nH]c2ccccc12 (stereo unspecified) | 20.6 | 26.6 | 27.7 | 10.6 | 
